pIC50: −log10 of the molar value.

By pIC50 is commonly meant the IC50 on a negative log10 scale, so that one unit is a factor of ten.

Sequence of KRASG12-dependent Ba/F3 cells (P01116 whole entry G12C): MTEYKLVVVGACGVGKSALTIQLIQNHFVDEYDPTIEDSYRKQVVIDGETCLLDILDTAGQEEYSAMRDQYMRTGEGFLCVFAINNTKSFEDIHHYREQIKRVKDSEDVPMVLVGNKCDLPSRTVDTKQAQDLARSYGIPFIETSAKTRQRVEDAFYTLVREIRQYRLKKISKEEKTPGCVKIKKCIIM
T1 sequence (P01116 1-169 isoform P01116-2 G12C/C51S/C80L/C118S): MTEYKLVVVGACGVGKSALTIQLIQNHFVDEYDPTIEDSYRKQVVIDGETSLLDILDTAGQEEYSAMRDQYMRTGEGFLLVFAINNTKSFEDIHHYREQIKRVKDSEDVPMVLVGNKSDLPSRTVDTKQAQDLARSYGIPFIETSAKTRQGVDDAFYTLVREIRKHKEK

One assay has as its target T1, protein-protein interaction between SOS1 and KRAS G12C (Homo sapiens, UniProt P01116, C118S/C51S/C80L/G12C).
T1 construct: His6 (N)
In words: KRAS::SOS1 AlphaScreen binding assay. The settings on record: Table 35. The protocol:
KRAS::SOS1 AlphaScreen Binding Assay
Assay buffer: • 1×PBS • 0.1% BSA • 0.05% Tween 20
AlphaLISA Glutathione Acceptor Beads and AlphaScreen Streptavidin Donor Beads are mixed in assay buffer at a concentration of 10 μg/mL (final assay concentration) each prior to use and kept at room temperature.
Compounds are diluted to a final start concentration of 100 μM and are tested in duplicate. […] For compound a start concentration of 100 μM, 150 nL of compound solution is transferred per well in 11 concentrations in duplicate with serial 1:5 dilutions.
The assay is run using a fully automated robotic system in a darkened room below 100 Lux. 10 μL of KRAS::SOS1 GDP mix is added into columns 1-24 to the 150 nL of compound solution (final dilution in the assay 1:100, final DMSO concentration 1%).
After 30 minutes incubation time 5 μL of bead mix is added into columns 1-23. Plates are kept at room temperature in a darkened incubator. After further 60 minutes incubation, the signal is measured using a PerkinElmer Envision HTS Multilabel Reader using the AlphaScreen specifications from PerkinElmer. Each plate contains the following controls: • diluted DMSO+KRAS::SOS1 GDP mix+bead mix • diluted DMSO+KRAS::SOS1 GDP mix
IC50 values are calculated and analyzed using a 4 parametric logistic model.
(In general: In Alpha technology, singlet oxygen from a donor bead excites a nearby acceptor bead.)
In turn, `C=CC(=O)N1CCC(c2cc(-c3noc(C4(C)CCCc5sc(N)c(C#N)c54)n3)nc(N3CCN(C)CC3)c2)CC1` (stereo not drawn) [Ia-1] showed a pIC50 of 6.91.

Still in this assay, the particulars now being: Table 36.
Regarding `C=CC(=O)N1CCN(c2cc(-c3noc([C@@]4(C)CCCc5sc(N)c(C#N)c54)n3)nc(N3CCCN([C@@H]4CCOC4)C[C@@H]3C)n2)CC1` [Ia-43], the pIC50 was 8.77.
The same measure, in the same setting: in the case of `C=CC(=O)N1CC2(CCN(c3cc(-c4noc([C@@]5(C)CCCc6sc(N)c(C#N)c65)n4)nc(N4CCCN(C)C[C@@H]4C)n3)C2)C1` [Ia-94] it was 7.11; in that of `C=CC(=O)N1CCN(c2cc(-c3noc([C@@]4(C)CCCc5sc(N)c(C#N)c54)n3)nc(N3CCCN([C@H]4CCOC4)C[C@@H]3C)n2)CC1` [Ia-44], 8.82; in that of `C=CC(=O)N1CCN(C2CN(c3cc(-c4noc([C@@]5(C)CCCc6sc(N)c(C#N)c65)n4)nc(N4CCCN(C)C[C@@H]4C)n3)C2)CC1` [Ia-100], 7.08.
On the same count and under the same terms, to `C=CC(=O)N1C[C@@H]2CN(c3cc(-c4noc([C@@]5(C)CCCc6sc(N)c(C#N)c65)n4)nc(N4CCCN(C)C[C@@H]4C)n3)[C@@H]2C1` [Ia-101] belongs 7.36.
The same measure, in the same setting: in the case of `C=CC(=O)N1CCN(c2cc(-c3noc([C@@]4(C)CCCc5sc(N)c(C#N)c54)n3)nc(OC[C@@H]3CCCN3C)n2)CC1` [Ia-47] it was 8.52.
Turning to `C=CC(=O)N1CCN(c2cc(-c3noc(C4(C)CCCc5sc(N)c(C#N)c54)n3)nc(N3CCC(N4CCCCC4)CC3)c2)CC1` (stereo not drawn) [Ia-37], the negative logarithm of the IC50 (pIC50) is 7.33.
Still for that read-out and setting: to `C=CC(=O)N(C)c1cccc(-c2cc(-c3noc(C4(C)CCCc5sc(N)c(C#N)c54)n3)nc(N3CCN(C)CC3)c2)c1` (stereo not drawn) [Ia-151] belongs 5.92; to `C=CC(=O)N1CCN(c2cc(-c3noc([C@@]4(C)CCCc5sc(N)c(C#N)c54)n3)nc(N3CCCN(CCCOC)C[C@@H]3C)n2)CC1` [Ia-42], 8.74; to `C=CC(=O)N1CCN(c2cc(-c3noc(C4(C)CCCc5sc(N)c(C#N)c54)n3)nc(N3CCC(N4CCCCC4)C3)c2)CC1` (stereo not drawn) [Ia-22], 7.40.
On the same count and under the same terms, in the case of `C=CC(=O)N1CCN(c2cc(-c3noc(C4(C)CCCc5sc(N)c(C#N)c54)n3)nc(N3CCN(C4COC4)CC3)c2)CC1` (stereo not drawn) [Ia-18] it was 6.44; in that of `C=CC(=O)N1CCN(c2cc(-c3noc(C4(C)CCCc5sc(N)c(C#N)c54)n3)nc(N3CCN(C4CCN(C)CC4)CC3)c2)CC1` (stereo not drawn) [Ia-28], 6.82; in that of `C=CC(=O)N1CCN(c2cc(OCCN3CCCC3)cc(-c3noc(C4(C)CCCc5sc(N)c(C#N)c54)n3)c2)CC1` (stereo not drawn) [Ia-144], 6.19.
In turn, `C=CC(=O)N1CCN(c2cc(-c3noc(C4(C)CCCc5sc(N)c(C#N)c54)n3)nc(N3CCC(N4CCC(F)C4)CC3)c2)CC1` (stereo not drawn) [Ia-38] had a negative-log IC50 (pIC50) of 7.66.
Still for that read-out and setting: in the case of `C=CC(=O)N1[C@H](C)CN(c2cc(-c3noc(C4(C)CCCc5sc(N)c(C#N)c54)n3)nc(N3CCN(C4CCCC4)CC3)c2)C[C@@H]1C` (stereo partly drawn) [Ia-8] it was 6.00.
Take `C=CC(=O)N1CCCC(Oc2cc(-c3noc(C4(C)CCCc5sc(N)c(C#N)c54)n3)nc(N3CCN(C)CC3)c2)CC1` (stereo not drawn) [Ia-145]: the negative logarithm of the IC50 (pIC50) was 6.42.
The same measure, in the same setting: to `C=CC(=O)N1CCN(c2cc(-c3noc(C4(C)CCCc5sc(N)c(C#N)c54)n3)nc(N3CCN(CC4CC4)CC3)c2)CC1` (stereo not drawn) [Ia-146] belongs 7.30.

A further assay addresses KRASG12-dependent Ba/F3 cells (Homo sapiens, UniProt P01116, G12C, cells depend on it). In words: Ba/F3 cell model proliferation assay (AlamarBlue, 72 h). In kind it is cell-based. The settings on record: Ba/F3 cells transduced with KRASG12C, read-out: IC50 Ba/F3 KRASG12C. How it is done:
Ba/F3 Cell Model Generation and Proliferation Assay
Plasmids containing KRASG12 mutants were obtained from GeneScript. To generate KRASG12-dependent Ba/F3 models, Ba/F3 cells were transduced with retroviruses containing vectors that harbor KRASG12 isoforms. Platinum-E cells (Cell Biolabs) were used for retrovirus packaging. Retrovirus was added to Ba/F3 cells. To ensure infection, 4 μg/mL polybrene was added and cells were spinfected. […] Cells with an infection efficiency of 10% to 20% were further cultivated and puromycin selection with 1 μg/mL was initiated. As a control, parental Ba/F3 cells were used to show selection status. Selection was considered successful when parental Ba/F3 cells cultures died. To evaluate the transforming potential of KRASG12 mutations, the growth medium was no longer supplemented with IL-3. Ba/F3 cells harboring the empty vector were used as a control. Approximately ten days before conducting the experiments, puromycin was left out.
All treatments were performed in technical duplicates. The assay is run using a fully automated robotic system. Treated cells were incubated for 72 h at 37° C. with 5% CO2.
AlamarBlue™ (ThermoFisher), a viability stain, was added and fluorescence measured in the PerkinElmer Envision HTS Multilabel Reader.
For orientation: Alamar Blue is a resazurin reagent that responds to reducing activity.
For the compound `C=CC(=O)N1CCN(c2cc(-c3noc([C@@]4(C)CCCc5sc(N)c(C#N)c54)n3)nc(N3CCCN([C@@H]4CCOC4)C[C@@H]3C)n2)CC1` [Ia-43], the GI50 amounted to 0.0027 µM.
On the same count and under the same terms, in the case of `C=CC(=O)N1CC2(CCN(c3cc(-c4noc([C@@]5(C)CCCc6sc(N)c(C#N)c65)n4)nc(N4CCCN(C)C[C@@H]4C)n3)C2)C1` [Ia-94] it was 2.29 µM.
On to `C=CC(=O)N1CCN(c2cc(-c3noc([C@@]4(C)CCCc5sc(N)c(C#N)c54)n3)nc(N3CCCN([C@H]4CCOC4)C[C@@H]3C)n2)CC1` [Ia-44], for which the GI50 is 0.0025 µM.
On the same count and under the same terms, to `C=CC(=O)N1CCN(C2CN(c3cc(-c4noc([C@@]5(C)CCCc6sc(N)c(C#N)c65)n4)nc(N4CCCN(C)C[C@@H]4C)n3)C2)CC1` [Ia-100] belongs 2.2 µM.
Still for that read-out and setting: to `C=CC(=O)N1C[C@@H]2CN(c3cc(-c4noc([C@@]5(C)CCCc6sc(N)c(C#N)c65)n4)nc(N4CCCN(C)C[C@@H]4C)n3)[C@@H]2C1` [Ia-101] belongs 0.933 µM; to `C=CC(=O)N1CCN(c2cc(-c3noc([C@@]4(C)CCCc5sc(N)c(C#N)c54)n3)nc(OC[C@@H]3CCCN3C)n2)CC1` [Ia-47], 0.186 µM.

A further assay has as its system pERK (Thr202/Tyr204) in NCI-H358 (KRAS G12C mutation). In words: ERK phosphorylation assay 1 (AlphaLISA SureFire Ultra p-ERK1/2). The settings on record: Homo sapiens, NCI-H358, read-out: IC50 H358 pERK.
Protocol: ERK Phosphorylation Assay
Materials Used for the Assay:
AlphaLISA SureFire Ultra p-ERK1/2 (Thr202/Tyr204) Assay Kit (ALSU-PERK-A500)
The cells are incubated for 1 h at room temperature and then incubated overnight in an incubator at 37° C. and 5% CO2 in a humidified atmosphere. 60 nL compound solution (10 mM DMSO stock solution) is then added using a Labcyte Echo 550 device. […] After 20 minutes of incubation at room temperature with shaking, 6 μL of each lysate sample is transferred to a 384-well Proxiplate and analyzed for pERK (Thr202/Tyr204) with the AlphaLISA SureFire Ultra pERK1/2 (Thr202/Tyr204) Assay Kit. 3 μL Acceptor Mix and 3 μL Donor Mix are added under subdued light and incubated for 2 h at room temperature in the dark, before the signal is measured on a PerkinElmer Envision HTS Multilabel Reader. The raw data were imported into and analyzed with the Boehringer Ingelheim proprietary software MegaLab (curve fitting based on the program PRISM, GraphPad Inc.).
`C=CC(=O)N1CCN(c2cc(-c3noc(C4(C)CCCc5sc(N)c(C#N)c54)n3)nc(N3CCC(N4CCCCC4)CC3)c2)CC1` (stereo not drawn) [Ia-37]: the pIC50 was 7.91.
The same measure, in the same setting: in the case of `C=CC(=O)N(C)c1cccc(-c2cc(-c3noc(C4(C)CCCc5sc(N)c(C#N)c54)n3)nc(N3CCN(C)CC3)c2)c1` (stereo not drawn) [Ia-151] it was 6.74; in that of `C=CC(=O)N1CCN(c2cc(-c3noc([C@@]4(C)CCCc5sc(N)c(C#N)c54)n3)nc(N3CCCN(CCCOC)C[C@@H]3C)n2)CC1` [Ia-42], 8.55; in that of `C=CC(=O)N1CCN(c2cc(-c3noc(C4(C)CCCc5sc(N)c(C#N)c54)n3)nc(N3CCC(N4CCCCC4)C3)c2)CC1` (stereo not drawn) [Ia-22], 8.17.
The same measure, in the same setting: in the case of `C=CC(=O)N1CCN(c2cc(-c3noc(C4(C)CCCc5sc(N)c(C#N)c54)n3)nc(N3CCN(C4COC4)CC3)c2)CC1` (stereo not drawn) [Ia-18] it was 7.24; in that of `C=CC(=O)N1CCN(c2cc(-c3noc(C4(C)CCCc5sc(N)c(C#N)c54)n3)nc(N3CCN(C4CCN(C)CC4)CC3)c2)CC1` (stereo not drawn) [Ia-28], 6.11; in that of `C=CC(=O)N1CCN(c2cc(OCCN3CCCC3)cc(-c3noc(C4(C)CCCc5sc(N)c(C#N)c54)n3)c2)CC1` (stereo not drawn) [Ia-144], 7.16.
The same measure, in the same setting: to `C=CC(=O)N1CCN(c2cc(-c3noc(C4(C)CCCc5sc(N)c(C#N)c54)n3)nc(N3CCC(N4CCC(F)C4)CC3)c2)CC1` (stereo not drawn) [Ia-38] belongs 8.24; to `C=CC(=O)N1[C@H](C)CN(c2cc(-c3noc(C4(C)CCCc5sc(N)c(C#N)c54)n3)nc(N3CCN(C4CCCC4)CC3)c2)C[C@@H]1C` (stereo partly drawn) [Ia-8], 6.26.
Regarding `C=CC(=O)N1CCCC(Oc2cc(-c3noc(C4(C)CCCc5sc(N)c(C#N)c54)n3)nc(N3CCN(C)CC3)c2)CC1` (stereo not drawn) [Ia-145], the negative logarithm of the IC50 (pIC50) was 7.03.
Still for that read-out and setting: to `C=CC(=O)N1CCC(c2cc(-c3noc(C4(C)CCCc5sc(N)c(C#N)c54)n3)nc(N3CCN(C)CC3)c2)CC1` (stereo not drawn) [Ia-1] belongs 7.50.

Staying with this assay, now noted: read-out: IC50 H358 pERK; ERK phosphorylation assay 1 (values not marked with *), NCI-H358.
On to `C=CC(=O)N1CCN(c2cc(-c3noc(C4(C)CCCc5sc(N)c(C#N)c54)n3)nc(N3CCN(CC4CC4)CC3)c2)CC1` (stereo not drawn) [Ia-146], for which the negative logarithm of the IC50 (pIC50) was 8.00.

Values taken from US20230212164A1, “ANNULATED 2-AMINO-3-CYANO THIOPHENES AND DERIVATIVES FOR THE TREATMENT OF CANCER” (BOEHRINGER INGELHEIM INTERNATIONAL GMBH, priority 2020, published 2023).
